Experimental data taken from patent US10912815B2, “Inhibitors of mitochondrial fission and methods of use thereof” (The Board of Trustees of the Leland Stanford Junior …, priority 2011, dated 2021).
Residues, ends and D or L forms follow the SMILES beside them.

Key:
Dnm1 (yeast Drp1) = target: T1, Dnm1 (yeast Drp1) (Saccharomyces cerevisiae, UniProt P54861); conditions: yeast and mammals, by blocking Dnm1 polymerization; cited from earlier work
T1 sequence (P54861 1-757): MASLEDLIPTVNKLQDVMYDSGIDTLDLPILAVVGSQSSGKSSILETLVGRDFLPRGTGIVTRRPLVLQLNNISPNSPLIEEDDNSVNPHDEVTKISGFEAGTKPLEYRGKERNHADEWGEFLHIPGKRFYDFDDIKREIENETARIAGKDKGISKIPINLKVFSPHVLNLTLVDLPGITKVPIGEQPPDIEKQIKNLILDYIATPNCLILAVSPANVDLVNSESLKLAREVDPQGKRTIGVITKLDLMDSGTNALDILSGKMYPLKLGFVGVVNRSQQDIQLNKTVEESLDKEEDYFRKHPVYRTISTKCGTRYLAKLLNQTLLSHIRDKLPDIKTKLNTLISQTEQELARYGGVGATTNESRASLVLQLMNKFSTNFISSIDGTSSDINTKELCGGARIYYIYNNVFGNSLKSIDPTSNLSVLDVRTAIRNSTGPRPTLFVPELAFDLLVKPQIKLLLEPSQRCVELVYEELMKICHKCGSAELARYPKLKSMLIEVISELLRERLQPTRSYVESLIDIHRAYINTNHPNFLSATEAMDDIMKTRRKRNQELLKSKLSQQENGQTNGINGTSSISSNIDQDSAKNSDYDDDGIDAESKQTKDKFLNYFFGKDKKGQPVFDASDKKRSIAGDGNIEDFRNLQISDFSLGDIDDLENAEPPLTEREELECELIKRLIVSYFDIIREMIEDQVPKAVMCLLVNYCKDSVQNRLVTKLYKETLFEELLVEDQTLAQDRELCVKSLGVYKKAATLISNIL

[1] = system: isolated mouse liver mitochondria with Drp1 recombinant protein; assay: Membrane potential of isolated mouse liver mitochondria incubated with Drp1 (TMRM); type: biochemical; conditions: P110 1 μM, NAC 2.5 mM, FIG. 6D bottom
Description: (§1) Mitochondrial membrane potential was also determined using TMRM (tetramethylrhodamine methylester). Fifty μg of mitochondria were incubated with recombinant Drp1 (50 ng) followed by incubation with TMRM (0.5 μM) in the presence or absence of P110 (1 μM) or NAC (2.5 mM). Fluoresence detection was performed using black 96-well plates in a fluorescence microplate reader at 560 nm excitation and 690 nm emission and potential was assessed by quenching of the fluorescent signal. The data are presented as mean±S.E. of percentage relative to control mitochondria from three independent experiments (FIG. 6B, #, p<0.05 vs. control cells; *, p<0.05; **, P<0.01 vs. MPP+- or CCCP-treated cells). Isolated mouse liver mitochondria (50 μg) were incubated with Drp1 recombinant protein (50 ng) in the presence or absence of P110 (1 μM). A kinetic change of mitochondrial superoxide production was determined by using MITOSOX™ (red mitochondrial superoxide indicator). The data are presented as mean±S.E. of percentage relative to the value at basal level from three independent experiments (FIG. 6C, #, p<0.05 vs. control mitochondria; *, p<0.05 vs. mitochondria with the addition of Drp1). Mitochondrial membrane potential of isolated mouse liver mitochondria was determined by TMRM, as described above, in the indicated groups. NAC (2.5 mM) was used as a positive control (FIG. 6D). Protein levels of cytochrome c in the mitochondria were determined by western blot analysis with anti-cytochrome c antibodies in the indicated groups (insert, FIG. 6D). Total ROS production was determined by staining SH-SY5Y cells with CM2HDCFA (1 μM […] at 37° C.) in the indicated groups. The data are presented as mean±S.E. of percentage relative to control group from three independent experiments (FIG. 6E, *, p<0.05 vs. either MPP+ or CCCP treated-group; #, p<0.05 vs. control group).
The mitochondrial membrane potential of isolated mouse liver mitochondria was then measured in the presence or absence of P110.

OPA1 = target: T2, OPA1 (Homo sapiens, UniProt O60313); assay: In vitro GTPase assay, recombinant OPA1; type: biochemical; conditions: p<0.05, n=3, FIG. 2F
T2 sequence (O60313 88-960): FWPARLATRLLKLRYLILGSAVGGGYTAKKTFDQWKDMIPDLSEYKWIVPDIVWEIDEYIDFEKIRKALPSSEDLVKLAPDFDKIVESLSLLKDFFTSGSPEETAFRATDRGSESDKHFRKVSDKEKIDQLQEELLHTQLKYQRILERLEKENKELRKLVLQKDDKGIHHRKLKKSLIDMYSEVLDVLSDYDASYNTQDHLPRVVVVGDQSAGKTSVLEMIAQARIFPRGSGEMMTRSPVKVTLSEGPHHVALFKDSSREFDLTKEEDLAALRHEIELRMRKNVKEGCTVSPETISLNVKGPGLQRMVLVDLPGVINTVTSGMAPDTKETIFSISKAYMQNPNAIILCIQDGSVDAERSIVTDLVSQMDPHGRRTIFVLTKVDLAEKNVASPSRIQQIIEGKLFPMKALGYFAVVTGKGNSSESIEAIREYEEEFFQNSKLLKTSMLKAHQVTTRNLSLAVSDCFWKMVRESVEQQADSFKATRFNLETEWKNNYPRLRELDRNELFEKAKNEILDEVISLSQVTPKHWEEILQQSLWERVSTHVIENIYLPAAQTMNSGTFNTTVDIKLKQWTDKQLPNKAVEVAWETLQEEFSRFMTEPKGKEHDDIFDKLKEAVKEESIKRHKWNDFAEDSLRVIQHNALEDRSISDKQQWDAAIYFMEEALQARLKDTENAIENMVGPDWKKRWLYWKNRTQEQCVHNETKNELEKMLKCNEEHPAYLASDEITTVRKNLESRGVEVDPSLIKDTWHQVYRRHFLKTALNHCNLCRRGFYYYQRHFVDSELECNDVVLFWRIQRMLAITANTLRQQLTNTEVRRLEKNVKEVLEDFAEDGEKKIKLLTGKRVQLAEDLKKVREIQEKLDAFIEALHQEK
Description: (§2) First, mitochondrial fission inhibitor constructs were tested to determine what, if any, effects each peptide had on enzyme (GTPase) activity. Recombinant protein Drp1, Mfn1, OPA1 or dynamin-1 (25 ng) was incubated with the indicated modulator peptides for 30 min. GTPase activity was assayed in vitro using a GTPase assay kit (Innova Biosciences, Littleton, USA, or Novus Biologicals, Littleton, Colo.) according to manufacturer's instructions.

Recombinant protein Drp1 = Recombinant protein Drp1 (Homo sapiens, UniProt O00429); assay: In vitro GTPase assay, recombinant Drp1; type: biochemical; conditions: for inhibition in the GTPase activity of recombinant Drp1: recombinant Drp1 25 ng, 30 min incubation with peptide, FIG. 2A
Recombinant protein Drp1, sequence (O00429 1-710 isoform O00429-3): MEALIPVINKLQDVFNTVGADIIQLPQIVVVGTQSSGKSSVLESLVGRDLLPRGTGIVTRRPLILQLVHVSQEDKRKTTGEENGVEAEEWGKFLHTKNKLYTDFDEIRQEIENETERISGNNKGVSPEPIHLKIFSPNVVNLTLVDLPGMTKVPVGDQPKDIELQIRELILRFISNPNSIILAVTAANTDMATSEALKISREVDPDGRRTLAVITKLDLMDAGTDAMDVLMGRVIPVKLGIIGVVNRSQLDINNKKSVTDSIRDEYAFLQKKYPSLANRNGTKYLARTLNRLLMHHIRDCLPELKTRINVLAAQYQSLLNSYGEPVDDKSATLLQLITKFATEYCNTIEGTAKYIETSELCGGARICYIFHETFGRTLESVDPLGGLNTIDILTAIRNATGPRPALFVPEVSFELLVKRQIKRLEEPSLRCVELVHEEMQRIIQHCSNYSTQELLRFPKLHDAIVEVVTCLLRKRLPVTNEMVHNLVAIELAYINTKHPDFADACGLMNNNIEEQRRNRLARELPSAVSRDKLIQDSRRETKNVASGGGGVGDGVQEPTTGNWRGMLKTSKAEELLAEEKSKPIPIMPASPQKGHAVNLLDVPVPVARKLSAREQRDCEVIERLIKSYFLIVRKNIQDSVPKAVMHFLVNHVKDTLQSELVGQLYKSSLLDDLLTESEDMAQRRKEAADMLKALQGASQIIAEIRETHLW
Description: as §2

Mfn1 = target: T3, Mfn1 (Homo sapiens, UniProt Q8IWA4); assay: In vitro GTPase assay, recombinant Mfn1; type: biochemical; conditions: p<0.05, n=3, FIG. 2F
T3 sequence (Q8IWA4 1-741): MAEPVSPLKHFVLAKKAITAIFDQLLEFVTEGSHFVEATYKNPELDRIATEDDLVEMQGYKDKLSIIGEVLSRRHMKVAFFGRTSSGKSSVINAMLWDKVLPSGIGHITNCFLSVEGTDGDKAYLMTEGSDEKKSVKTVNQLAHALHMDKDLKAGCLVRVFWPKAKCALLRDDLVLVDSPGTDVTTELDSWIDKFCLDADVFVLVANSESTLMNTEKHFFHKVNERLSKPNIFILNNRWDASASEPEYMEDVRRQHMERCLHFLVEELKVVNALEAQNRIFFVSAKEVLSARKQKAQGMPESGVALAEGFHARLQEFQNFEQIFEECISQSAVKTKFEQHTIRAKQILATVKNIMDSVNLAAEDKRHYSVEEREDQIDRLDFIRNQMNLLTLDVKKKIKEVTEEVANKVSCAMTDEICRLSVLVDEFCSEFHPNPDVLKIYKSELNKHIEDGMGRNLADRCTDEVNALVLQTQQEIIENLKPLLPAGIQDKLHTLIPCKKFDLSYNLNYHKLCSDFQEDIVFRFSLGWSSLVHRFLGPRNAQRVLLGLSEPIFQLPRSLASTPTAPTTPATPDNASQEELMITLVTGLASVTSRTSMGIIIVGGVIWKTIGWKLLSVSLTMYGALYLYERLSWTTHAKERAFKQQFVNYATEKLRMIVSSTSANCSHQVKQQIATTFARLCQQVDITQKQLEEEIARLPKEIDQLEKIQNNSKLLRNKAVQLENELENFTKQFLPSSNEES
Description: as §2

[2] = system: isolated mouse liver mitochondria with Drp1 recombinant protein; assay: Superoxide production of isolated mouse liver mitochondria after addition of recombinant Drp1; type: biochemical; conditions: isolated mouse liver mitochondria 50 μg, Drp1 50 ng, P110 1 μM, p<0.05, n=3, FIG. 6C
Description: as §1, with “The data are presented as mean±S.E. of percentage relative to the value at basal level from three independent experiments (FIG. 6C, #, p<0.05 vs. control mitochondria; *, p<0.05 vs. mitochondria with the addition of Drp1).” left out, “NAC (2.5 mM) was used as a positive control (FIG. 6D).” left out, “The data are presented as mean±S.E. of percentage relative to control group from three independent experiments (FIG. 6E, *, p<0.05 vs. either MPP+ or CCCP treated-group; #, p<0.05 vs. control group).” left out

SH-SY5Y cells = conditions: peptides 1 μM each, MPP+ 2 mM for 24 hours, FIG. 9E
Description: Cell viability of stressed SH-SY5Y cells was measured by MTT assay.
In another experiment, Human SH-SY5Y cells were treated with Drp1 P108, P109 or P110 or Fis1 P111, P112 or P113 (0.5 μM) for 15 min followed by treatment with MPP+(1 mM for 24 hrs). The cell viability was then determined by MTT test.

[3] = target: T4, Drp1 association with the mitochondria (Homo sapiens, UniProt O00429); assay: Association of recombinant Drp1 (GST-Drp1) with isolated mouse liver mitochondria; type: binding; conditions: peptide 1 μM, GST-Drp1, FIG. 2C
T4 construct: GST (N); host or cells: recombinant GST-Drp1 of unstated origin; mitochondria from mouse liver tissue
T4 sequence (O00429 1-710 isoform O00429-3): as the sequence (O00429 1-710 isoform O00429-3) above
Description: If the peptides designed do represent PPI surfaces between Drp1 and Fis1, the peptides should inhibit the association of Drp1 with the mitochondria. To obtain isolated mitochondria, SH-5YSH cells were washed with cold phosphate-buffered saline (PBS) and incubated on ice in lysis buffer (250 mM sucrose, 20 mmol/L HEPES-NaOH, pH 7.5, 10 mmol/L KCl, 1.5 mmol/L MgCl2, 1 mmol/L EDTA, protease inhibitor cocktail, phosphatase inhibitor cocktail) for 30 minutes. Cells were scraped and then disrupted 10 times by repeated aspiration through a 25 gauge needle, followed by a 30 gauge needle. Mouse liver tissue was minced and ground by pestle in lysis buffer. The homogenates were spun at 800 g for 10 min at 4° C. and the resulting supernatants were spun at 10,000 g for 20 minutes at 4° C. The pellets were washed with lysis buffer and spun at 10,000 g again for 20 minutes at 4° C. The final pellets were suspended in lysis buffer containing 1% Triton X-100 and were mitochondrial-rich lysate fractions.
Mitochondria isolated from mouse liver were incubated with recombinant Drp1 (GST-Drp1). Drp1 bound to mitochondrial preparation and only P110 (1 μM) reduced this association by >60% (p<0.01, FIG. 2C); peptide carrier TAT47-57 or the other Drp1-derived peptides had no effect. The mitochondrial membrane protein VDAC was used as marker and loading control.

COc1cc(-n2c(=S)[nH]c3ccccc3c2=O)c(Cl)cc1Cl [Mdivi-1]
mitochondrial division (Dnm1 (yeast Drp1)): inhibits mitochondrial division

CC(=O)N[C@@H](CS)C(=O)O [NAC, N-Acetyl cysteine, reference compound]
mitochondrial membrane potential (MMP) of isolated mitochondria after Drp1 addition [1]: prevented the dissipated MMP

CC(C)C[C@H](NC(=O)[C@H](CCCCN)NC(=O)CNC(=O)CNC(=O)[C@H](Cc1ccc(O)cc1)NC(=O)CNC(=O)[C@H](CCCNC(=N)N)NC(=O)[C@H](CCCCN)NC(=O)[C@H](CCCCN)NC(=O)[C@H](CCCNC(=N)N)NC(=O)[C@H](CCCNC(=N)N)NC(=O)[C@H](CCC(N)=O)NC(=O)[C@H](CCCNC(=N)N)NC(=O)[C@H](CCCNC(=N)N)NC(=O)[C@@H](N)CCCNC(=N)N)C(=O)N[C@@H](CO)C(=O)N[C@@H](C)C(=O)N[C@@H](CCCNC(=N)N)C(=O)N[C@@H](CCC(=O)O)C(=O)N[C@@H](CCC(N)=O)C(=O)N[C@@H](CCCNC(=N)N)C(=O)N[C@@H](CC(=O)O)C(N)=O [P109] (H-RRRQRRKKRGYGGKLSAREQRD-NH2)
GTPase activity of OPA1 (increased) (OPA1): 177%±13 | inhibition in the GTPase activity of recombinant Drp1 (Recombinant protein Drp1): 40% | GTPase activity of MFN1 (increased) (Mfn1): 229%±10

N=C(N)NCCC[C@H](NC(=O)[C@H](CCCCN)NC(=O)[C@H](CCCCN)NC(=O)[C@H](CCCNC(=N)N)NC(=O)[C@H](CCCNC(=N)N)NC(=O)[C@H](CCC(N)=O)NC(=O)[C@H](CCCNC(=N)N)NC(=O)[C@H](CCCNC(=N)N)NC(=O)[C@@H](N)CCCNC(=N)N)C(=O)NCC(=O)N[C@@H](Cc1ccc(O)cc1)C(=O)NCC(=O)NCC(=O)N[C@@H](CCCCN)C(=O)NCC(=O)N[C@@H](CO)C(=O)N[C@@H](CCCCN)C(=O)N[C@@H](CCC(=O)O)C(=O)N[C@@H](CCC(=O)O)C(=O)N[C@@H](CCC(N)=O)C(=O)N[C@@H](CCCNC(=N)N)C(=O)N[C@@H](CC(=O)O)C(N)=O [P112] (H-RRRQRRKKRGYGGKGSKEEQRD-NH2)
specifically inhibited Drp1 GTPase activity (Recombinant protein Drp1; in vitro GTPase assay, n=3, first statement of b271): 50% | inhibition in the GTPase activity of recombinant Drp1 (Recombinant protein Drp1): no significant effect

Drp1 K38A: dominant negative mutant of Drp1, which inhibits Drp1 GTPase activity and fission activity; positive control
Drp1-induced ROS (superoxide) elevation in the mitochondria [2]: abolished | mitochondrial membrane potential (MMP) of isolated mitochondria after Drp1 addition [1]: similar | inhibition in the GTPase activity of recombinant Drp1 (Recombinant protein Drp1): ~70%

RRRQRRKKRGYGGELLPKG (RRRQRRKKRGYGGELLPKGS) [P113, TAT47-57 carrier, GG linker, Fis1 region 113 peptide]
cell viability (MTT) (SH-SY5Y cells): no significant effect | inhibition in the GTPase activity of recombinant Drp1 (Recombinant protein Drp1): no significant effect

TAT47-57: cell permeating TAT protein-derived peptide carrier, used alone as control peptide
reduction of association of Drp1 with mitochondrial preparation [3]: no effect
